According to ChEMBL document CHEMBL1914283, “Synthesis and evaluation of pyridazinone-phenethylamine derivatives as selective and orally bioavailable histamine H3 receptor antagonists with robust wake-promoting activity” (Bioorg Med Chem Lett, 2011):
Activity calls are given as the source filed them. No cut-off for these calls is given here.

Legend:
Histamine H3 receptor [1] = molecular target: Histamine H3 receptor (Rattus norvegicus, UniProt Q9QYN8); test: Displacement of [3H]NAMH from rat H3R expressed in CHO cells; type: cell-based
Chain of Histamine H3 receptor (Rattus norvegicus, UniProt Q9QYN8) (Q9QYN8 whole entry): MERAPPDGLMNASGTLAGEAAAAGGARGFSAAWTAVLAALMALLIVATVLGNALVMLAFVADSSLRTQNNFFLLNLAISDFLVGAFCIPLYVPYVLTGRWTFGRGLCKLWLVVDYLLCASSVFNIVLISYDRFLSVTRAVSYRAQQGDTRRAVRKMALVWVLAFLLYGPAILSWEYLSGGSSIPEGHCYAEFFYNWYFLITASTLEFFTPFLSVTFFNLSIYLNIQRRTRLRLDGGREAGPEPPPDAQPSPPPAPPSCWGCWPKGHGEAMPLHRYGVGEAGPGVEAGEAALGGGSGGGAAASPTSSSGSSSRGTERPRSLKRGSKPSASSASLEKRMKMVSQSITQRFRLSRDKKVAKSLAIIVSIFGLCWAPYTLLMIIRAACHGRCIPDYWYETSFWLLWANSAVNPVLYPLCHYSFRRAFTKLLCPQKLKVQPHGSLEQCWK

Cytochrome P450 2C9 = Cytochrome P450 2C9 (Homo sapiens, UniProt P11712); test: Inhibition of CYP2C9; type: ADME
Chain of Cytochrome P450 2C9 (P11712 whole entry): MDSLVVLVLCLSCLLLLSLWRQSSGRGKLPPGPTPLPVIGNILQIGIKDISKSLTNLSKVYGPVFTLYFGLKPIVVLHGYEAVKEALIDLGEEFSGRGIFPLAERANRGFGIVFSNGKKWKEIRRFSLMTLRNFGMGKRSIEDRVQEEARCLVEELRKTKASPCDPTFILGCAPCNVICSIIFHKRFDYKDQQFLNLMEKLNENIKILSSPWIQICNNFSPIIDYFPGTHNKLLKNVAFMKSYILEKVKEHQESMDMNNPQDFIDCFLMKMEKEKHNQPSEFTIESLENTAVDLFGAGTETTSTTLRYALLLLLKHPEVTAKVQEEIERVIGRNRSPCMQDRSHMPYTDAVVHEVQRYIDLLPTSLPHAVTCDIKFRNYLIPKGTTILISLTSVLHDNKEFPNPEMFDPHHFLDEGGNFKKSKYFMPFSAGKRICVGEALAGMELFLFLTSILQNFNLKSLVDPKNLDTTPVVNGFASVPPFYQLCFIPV

Cytochrome P450 3A4 = Cytochrome P450 3A4 (Homo sapiens, UniProt P08684); test: Inhibition of CYP3A4; type: ADME
Chain of Cytochrome P450 3A4 (P08684 whole entry): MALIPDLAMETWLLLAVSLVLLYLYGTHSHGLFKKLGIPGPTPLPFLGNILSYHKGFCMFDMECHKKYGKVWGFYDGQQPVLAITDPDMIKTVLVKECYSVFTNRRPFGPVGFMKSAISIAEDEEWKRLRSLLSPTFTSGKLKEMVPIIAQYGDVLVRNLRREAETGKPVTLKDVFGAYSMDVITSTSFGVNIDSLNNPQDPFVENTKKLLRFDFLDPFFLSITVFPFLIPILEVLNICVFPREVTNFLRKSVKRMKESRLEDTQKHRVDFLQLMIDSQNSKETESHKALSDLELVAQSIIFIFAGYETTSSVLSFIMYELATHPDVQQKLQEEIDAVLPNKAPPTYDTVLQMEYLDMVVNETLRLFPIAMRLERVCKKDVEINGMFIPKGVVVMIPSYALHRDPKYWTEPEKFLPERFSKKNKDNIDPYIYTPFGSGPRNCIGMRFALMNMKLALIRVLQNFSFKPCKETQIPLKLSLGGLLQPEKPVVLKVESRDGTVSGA

[2] = Cmax in rat at 5 mg/kg, po; type: ADME, organism-based; set-up: dose 5 mg/kg, route oral; conditions: in vivo
[3] = Metabolic stability in human liver microsomes assessed as half life; type: ADME, Microsome
[4] = Clearance in rat at 1 mg/kg, iv; type: ADME, organism-based; set-up: dose 1 mg/kg, route intravenous; conditions: in vivo
Rattus norvegicus [5] = test: Wake promoting activity in Sprague-Dawley rat EEG/EMG model assessed as increase in cumulative wake time at 30 mg/kg, ip up to 4 hrs; type: functional; conditions: route intraperitoneal
[6] = molecular target: Histamine H4 receptor (Homo sapiens) (UniProt Q9H3N8); test: Inhibition of human H4R at 10 uM
Chain of Histamine H4 receptor (Homo sapiens) (Q9H3N8 whole entry): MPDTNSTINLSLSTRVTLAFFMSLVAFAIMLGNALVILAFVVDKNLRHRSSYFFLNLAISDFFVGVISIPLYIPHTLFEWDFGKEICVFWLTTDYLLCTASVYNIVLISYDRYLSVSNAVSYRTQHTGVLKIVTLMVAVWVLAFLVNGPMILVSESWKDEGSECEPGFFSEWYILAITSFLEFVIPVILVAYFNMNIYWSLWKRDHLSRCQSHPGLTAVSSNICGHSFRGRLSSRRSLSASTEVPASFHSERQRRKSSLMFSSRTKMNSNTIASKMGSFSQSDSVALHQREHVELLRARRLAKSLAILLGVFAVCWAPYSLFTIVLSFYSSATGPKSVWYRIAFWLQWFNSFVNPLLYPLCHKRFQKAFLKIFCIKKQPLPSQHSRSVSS

[7] = molecular target: Histamine H1 receptor (Homo sapiens) (UniProt P35367); test: Inhibition of human H1R at 10 uM
Chain of Histamine H1 receptor (Homo sapiens) (P35367 whole entry): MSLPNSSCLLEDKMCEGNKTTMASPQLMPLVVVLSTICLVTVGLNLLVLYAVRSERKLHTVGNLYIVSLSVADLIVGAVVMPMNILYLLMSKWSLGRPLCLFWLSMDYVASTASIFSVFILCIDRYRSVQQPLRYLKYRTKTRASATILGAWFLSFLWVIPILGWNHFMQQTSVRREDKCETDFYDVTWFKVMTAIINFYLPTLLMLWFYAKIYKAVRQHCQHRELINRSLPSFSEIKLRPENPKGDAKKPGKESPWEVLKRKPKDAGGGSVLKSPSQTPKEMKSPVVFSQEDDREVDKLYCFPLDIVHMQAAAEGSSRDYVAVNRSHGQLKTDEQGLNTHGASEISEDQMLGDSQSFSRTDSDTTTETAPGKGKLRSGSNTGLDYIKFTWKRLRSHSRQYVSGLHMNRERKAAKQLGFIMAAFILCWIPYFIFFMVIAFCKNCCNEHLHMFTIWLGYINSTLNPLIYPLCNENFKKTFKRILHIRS

[8] = Oral bioavailability in rat at 5 mg/kg; type: ADME, organism-based; conditions: in vivo
Histamine H3 receptor [9] = molecular target: T1, Histamine H3 receptor (Homo sapiens, UniProt Q9Y5N1); test: Antagonist activity at human H3R expressed in CHO cells assessed as inhibition of R-alpha-methylhistamine-induced [35S]GTPgammaS binding; type: functional, cell-based
Target sequence in this assay (Q9Y5N1 whole entry): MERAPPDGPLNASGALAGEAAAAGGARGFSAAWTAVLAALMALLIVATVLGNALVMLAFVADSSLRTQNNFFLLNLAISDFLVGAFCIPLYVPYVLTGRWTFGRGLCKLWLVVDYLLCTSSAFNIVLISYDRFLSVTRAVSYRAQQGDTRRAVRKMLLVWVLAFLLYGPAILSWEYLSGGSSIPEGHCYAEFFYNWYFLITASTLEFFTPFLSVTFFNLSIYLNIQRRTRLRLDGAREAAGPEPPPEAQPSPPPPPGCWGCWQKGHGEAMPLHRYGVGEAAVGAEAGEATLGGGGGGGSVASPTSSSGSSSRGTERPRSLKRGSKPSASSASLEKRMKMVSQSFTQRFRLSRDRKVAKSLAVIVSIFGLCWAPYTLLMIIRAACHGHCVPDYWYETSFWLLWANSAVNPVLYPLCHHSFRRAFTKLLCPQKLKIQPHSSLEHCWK

Rattus norvegicus [10] = test: Wake promoting activity in Sprague-Dawley rat EEG/EMG model assessed as sleep rebound at 3 to 30 mg/kg, ip; type: functional, organism-based
[11] = Volume of distribution in rat at 1 mg/kg, iv; type: ADME, organism-based; set-up: dose 1 mg/kg, route intravenous; conditions: in vivo
Rattus norvegicus [12] = test: Wake promoting activity in Sprague-Dawley rat EEG/EMG model assessed as cumulative wake time at 10 mg/kg, ip; type: functional; conditions: route intraperitoneal
Cytochrome P450 1A2 = molecular target: T2, Cytochrome P450 1A2 (Homo sapiens, UniProt P05177); test: Inhibition of CYP1A2; type: ADME
T2 sequence (P05177 whole entry): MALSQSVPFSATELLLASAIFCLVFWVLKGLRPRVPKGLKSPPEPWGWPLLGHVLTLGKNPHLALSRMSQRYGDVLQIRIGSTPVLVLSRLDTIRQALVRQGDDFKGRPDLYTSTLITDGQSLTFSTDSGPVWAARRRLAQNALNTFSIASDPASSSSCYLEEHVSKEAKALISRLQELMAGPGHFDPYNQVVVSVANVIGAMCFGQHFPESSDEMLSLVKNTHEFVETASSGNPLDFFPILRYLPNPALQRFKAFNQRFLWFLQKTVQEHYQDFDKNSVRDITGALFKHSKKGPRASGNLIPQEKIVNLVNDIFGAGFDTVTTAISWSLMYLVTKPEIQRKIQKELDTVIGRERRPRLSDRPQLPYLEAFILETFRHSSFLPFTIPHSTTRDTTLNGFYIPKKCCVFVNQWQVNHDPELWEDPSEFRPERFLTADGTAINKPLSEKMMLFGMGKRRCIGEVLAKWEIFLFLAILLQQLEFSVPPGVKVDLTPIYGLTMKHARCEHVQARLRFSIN

[13] = AUC (0 to infinity) in rat at 1 mg/kg, iv; type: ADME, organism-based; set-up: time infinity, dose 1 mg/kg, route intravenous; conditions: plasma
Rattus norvegicus [14] = test: Wake promoting activity in Sprague-Dawley rat EEG/EMG model assessed as cumulative wake time at 30 mg/kg, ip after 7 hrs; type: functional; conditions: route intraperitoneal
Rattus norvegicus [15] = test: Inhibition of R-alpha-methylhistamine-induced water intake in ip dosed rat dipsogenia model; type: functional
[16] = Metabolic stability in mouse liver microsomes assessed as half life; type: ADME, Microsome
[17] = molecular target: Histamine H2 receptor (Homo sapiens) (UniProt P25021); test: Inhibition of human H2R at 10 uM
Chain of Histamine H2 receptor (Homo sapiens) (P25021 whole entry): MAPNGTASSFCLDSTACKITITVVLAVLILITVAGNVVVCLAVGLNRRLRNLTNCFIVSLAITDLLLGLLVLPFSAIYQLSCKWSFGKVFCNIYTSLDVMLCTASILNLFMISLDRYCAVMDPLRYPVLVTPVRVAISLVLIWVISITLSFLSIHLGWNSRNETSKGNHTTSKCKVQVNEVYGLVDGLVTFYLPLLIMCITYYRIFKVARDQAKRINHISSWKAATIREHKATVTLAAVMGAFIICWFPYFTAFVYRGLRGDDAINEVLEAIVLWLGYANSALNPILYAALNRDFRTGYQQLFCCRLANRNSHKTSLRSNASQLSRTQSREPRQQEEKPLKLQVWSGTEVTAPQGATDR

Cytochrome P450 2D6 = Cytochrome P450 2D6 (Homo sapiens, UniProt P10635); test: Inhibition of CYP2D6; type: ADME
Chain of Cytochrome P450 2D6 (P10635 whole entry): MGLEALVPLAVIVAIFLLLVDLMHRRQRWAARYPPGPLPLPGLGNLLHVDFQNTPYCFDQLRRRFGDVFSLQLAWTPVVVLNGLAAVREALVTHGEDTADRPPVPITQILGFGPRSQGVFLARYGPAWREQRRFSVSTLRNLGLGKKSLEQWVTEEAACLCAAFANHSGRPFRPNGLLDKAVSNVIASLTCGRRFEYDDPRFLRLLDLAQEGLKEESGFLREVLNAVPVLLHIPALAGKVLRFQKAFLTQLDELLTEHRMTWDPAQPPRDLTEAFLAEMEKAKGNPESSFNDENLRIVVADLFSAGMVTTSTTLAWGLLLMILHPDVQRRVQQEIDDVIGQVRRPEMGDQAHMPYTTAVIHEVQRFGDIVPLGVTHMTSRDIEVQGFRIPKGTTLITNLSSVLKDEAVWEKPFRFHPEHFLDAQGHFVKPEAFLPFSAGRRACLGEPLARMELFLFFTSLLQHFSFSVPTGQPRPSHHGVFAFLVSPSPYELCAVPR

[18] = AUC (0 to infinity) in rat at 5 mg/kg, po; type: ADME, organism-based; set-up: time infinity, dose 5 mg/kg, route oral; conditions: plasma
Rattus norvegicus [19] = test: Wake promoting activity in Sprague-Dawley rat EEG/EMG model assessed as increase in cumulative wake time at 30 mg/kg, ip relative to vehicle treated animals; type: functional; conditions: route intraperitoneal
Rattus norvegicus [20] = test: Toxicity in Sprague-Dawley rat EEG/EMG model assessed as EEG abnormality at 3 to 30 mg/kg, ip; type: organism-based; set-up: dose 3-30 mg/kg, route intraperitoneal; conditions: in vivo
[21] = Metabolic stability in dog liver microsomes assessed as half life; type: ADME, Canis lupus familiaris, Microsome
Rattus norvegicus [22] = test: Wake promoting activity in ip dosed Sprague-Dawley rat EEG/EMG model assessed as cumulative wake time; type: functional, organism-based
Cytochrome P450 2C19 = Cytochrome P450 2C19 (Homo sapiens, UniProt P33261); test: Inhibition of CYP2C19; type: ADME
Chain of Cytochrome P450 2C19 (P33261 whole entry): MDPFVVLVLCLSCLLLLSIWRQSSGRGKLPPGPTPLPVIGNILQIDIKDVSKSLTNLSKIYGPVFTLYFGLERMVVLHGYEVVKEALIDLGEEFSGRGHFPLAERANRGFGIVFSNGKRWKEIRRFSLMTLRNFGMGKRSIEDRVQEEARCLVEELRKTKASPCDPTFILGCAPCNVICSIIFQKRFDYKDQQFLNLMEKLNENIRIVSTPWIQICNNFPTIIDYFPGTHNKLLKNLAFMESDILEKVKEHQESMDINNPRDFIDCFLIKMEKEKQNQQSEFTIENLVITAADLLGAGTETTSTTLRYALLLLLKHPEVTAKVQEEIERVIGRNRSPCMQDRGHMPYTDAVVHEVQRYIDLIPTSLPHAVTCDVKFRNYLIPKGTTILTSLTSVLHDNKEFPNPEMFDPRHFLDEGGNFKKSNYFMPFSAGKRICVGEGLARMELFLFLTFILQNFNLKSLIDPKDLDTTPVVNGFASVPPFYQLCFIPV

Rattus norvegicus [23] = test: Wake promoting activity in Sprague-Dawley rat EEG/EMG model assessed as cumulative wake time at 30 mg/kg, ip; type: functional; conditions: route intraperitoneal
Histamine H3 receptor [24] = molecular target: T1, Histamine H3 receptor; test: Displacement of [3H]NAMH from human H3R expressed in CHO cells; type: cell-based
Target sequence in this assay (Q9Y5N1 whole entry): as the sequence (Q9Y5N1 whole entry) above

Histamine H3 receptor [25] = molecular target: T1, Histamine H3 receptor; test: Inverse agonist activity at human H3R expressed in CHO cells assessed as inhibition of R-alpha-methylhistamine-induced [35S]GTPgammaS binding; type: functional, cell-based
Target sequence in this assay (Q9Y5N1 whole entry): as above

[26] = Half life in rat at 1 mg/kg, iv; type: ADME, organism-based; set-up: dose 1 mg/kg, route intravenous; conditions: in vivo
Histamine H3 receptor [27] = molecular target: T1, Histamine H3 receptor; test: Antagonist activity at human H3R expressed in CHO cells assessed as inhibition of R-alpha-methylhistamine-induced [35S]GTPgammaS binding
Target sequence in this assay (Q9Y5N1 whole entry, looked up): as the sequence (Q9Y5N1 whole entry) above

[28] = Ratio of drug level from brain to plasma of rat at 10 mg/kg, ip after 1 hr; type: ADME, organism-based; set-up: dose 10 mg/kg, route intraperitoneal; conditions: read-out: BPR
Rattus norvegicus [29] = test: Wake promoting activity in Sprague-Dawley rat EEG/EMG model assessed as increase in cumulative wake time at 30 mg/kg, ip up to 4.5 hrs; type: functional, organism-based; set-up: dose 30 mg/kg
[30] = Metabolic stability in rat liver microsomes assessed as half life; type: ADME, Microsome
Rattus norvegicus [31] = test: Wake promoting activity in Sprague-Dawley rat EEG/EMG model assessed as increase in cumulative wake time at 30 mg/kg, ip up to 7.5 hrs; type: functional, organism-based; set-up: dose 30 mg/kg
[32] = Aqueous solubility of the compound at pH 7.4; type: physicochemical; conditions: buffer
Rattus norvegicus [33] = test: Wake promoting activity in Sprague-Dawley rat EEG/EMG model assessed as sleep rebound at 3 to 30 mg/kg, ip up to 22 hrs; type: functional, organism-based
[34] = Aqueous solubility of the compound at pH 2; type: physicochemical; conditions: buffer

C[C@@H]1CCCN1CCCOc1ccc(-c2ccc(=O)[nH]n2)cc1 [IRDABISANT]
Ki (Histamine H3 receptor [1]): 7 nM

C[C@@H]1CCCN1CCc1ccc(-c2ccc(=O)n(C)n2)cc1
IC50 (Cytochrome P450 2C9): > 30 µM | IC50 (Cytochrome P450 3A4): > 30 µM | Cmax [2]: 18 ng/mL | half-life [3]: > 40 min | clearance [4]: 12 mL/min/kg | Activity (Rattus norvegicus [5]): 98% | inhibition [6]: < 30% | inhibition [7]: < 30% | bioavailability [8]: < 1% | Ki (Histamine H3 receptor [1]): 58 nM | Activity (Histamine H3 receptor [9]): Active | Activity (Rattus norvegicus [10]): inactive | Vd [11]: 0.6 L/kg | Time (Rattus norvegicus [12]): 161 min | IC50 (Cytochrome P450 1A2): > 30 µM | AUC(0-inf) [13]: 1650 ng·h/mL | Time (Rattus norvegicus [14]): 200 min | ED50 (Rattus norvegicus [15]): 0.07 mg/kg | inhibition (Rattus norvegicus [15]): Dose-dependent effect | half-life [16]: 25 min | inhibition [17]: < 30% | IC50 (Cytochrome P450 2D6): > 30 µM | AUC(0-inf) [18]: 28 ng·h/mL | Activity (Rattus norvegicus [19]): 68% | Activity (Rattus norvegicus [20]): Non-toxic | half-life [21]: > 40 min | Time (Rattus norvegicus [22]): Dose-dependent effect | IC50 (Cytochrome P450 2C19): > 30 µM | Time (Rattus norvegicus [23]): 235 min | Ki (Histamine H3 receptor [24]): 7 nM | EC50 (Histamine H3 receptor [25]): 2 nM | half-life [26]: 30 min | Activity (Histamine H3 receptor [27]): Active | Kp at 1 h [28]: 6 | Activity (Rattus norvegicus [29]): Active | half-life [30]: 39 min

C[C@@H]1CCCN1CCc1ccc(-c2ccc(=O)n(-c3ccc(F)cc3)n2)cc1
IC50 (Cytochrome P450 2C9): > 30 µM | IC50 (Cytochrome P450 3A4): > 30 µM | Cmax [2]: 255 ng/mL | half-life [3]: > 40 min | clearance [4]: 21 mL/min/kg | Activity (Rattus norvegicus [5]): 94% | inhibition [6]: < 30% | inhibition [7]: < 30% | bioavailability [8]: 27% | Ki (Histamine H3 receptor [1]): 48 nM | Activity (Histamine H3 receptor [9]): Active | Vd [11]: 4.8 L/kg | Time (Rattus norvegicus [12]): 207 min | IC50 (Cytochrome P450 1A2): > 30 µM | AUC(0-inf) [13]: 1300 ng·h/mL | ED50 (Rattus norvegicus [15]): 0.02 mg/kg | inhibition (Rattus norvegicus [15]): Dose-dependent effect | half-life [16]: > 40 min | Activity (Rattus norvegicus [31]): Active | inhibition [17]: < 30% | solubility [32]: > 125 µg/mL | IC50 (Cytochrome P450 2D6): > 30 µM | AUC(0-inf) [18]: 1730 ng·h/mL | Activity (Rattus norvegicus [33]): inactive | Activity (Rattus norvegicus [20]): Non-toxic | half-life [21]: > 40 min | IC50 (Cytochrome P450 2C19): > 30 µM | Ki (Histamine H3 receptor [24]): 13 nM | EC50 (Histamine H3 receptor [25]): 2.1 nM | half-life [26]: 138 min | Activity (Histamine H3 receptor [27]): Active | Kp at 1 h [28]: 11 | solubility [34]: > 125 µg/mL | half-life [30]: > 40 min

C[C@@H]1CCCN1CCc1ccc(-c2ccc(=O)n(Cc3ccccc3)n2)cc1
Ki (Histamine H3 receptor [1]): 18 nM | Ki (Histamine H3 receptor [24]): 5 nM

C[C@@H]1CCCN1CCc1ccc(-c2ccc(=O)n(-c3ccccn3)n2)cc1
Ki (Histamine H3 receptor [1]): 242 nM | Ki (Histamine H3 receptor [24]): 47 nM

C[C@@H]1CCCN1CCc1ccc(-c2ccc(=O)n(-c3ccccc3)n2)cc1
Ki (Histamine H3 receptor [1]): 42 nM | Ki (Histamine H3 receptor [24]): 34 nM

Cn1nc(-c2ccc(CCN3CCCC3)cc2)ccc1=O
Ki (Histamine H3 receptor [1]): 135 nM | Ki (Histamine H3 receptor [24]): 83 nM

C[C@@H]1CCCN1CCc1ccc(-c2ccc(=O)n(-c3ccc(Cl)cc3)n2)cc1
Ki (Histamine H3 receptor [1]): 26 nM | Ki (Histamine H3 receptor [24]): 8 nM

C[C@@H]1CCCN1CCc1ccc(-c2ccc(=O)[nH]n2)cc1
Ki (Histamine H3 receptor [1]): 43 nM | Ki (Histamine H3 receptor [24]): 31 nM
